In patent US9815796B2 (Merck Sharp & Dohme Corp., priority 2013, dated 2017):

biological target: human PDE2A1 (Homo sapiens (Human), UniProt O00408); assay: IMAP FP PDE selectivity panel, human PDE2A1; type: biochemical; conditions: Human PDE2, Lab B; read-out: Human PDE2 Ki (nM) - Lab B
Experimental: Selectivity for PDE2, as compared to other PDE families, was assessed using the IMAP® technology. Human PDE 10A2 enzyme was prepared from cytosolic fractions of transiently transfected HEK cells. All other PDE's were GST Tag human enzyme expressed in insect cells and were obtained from BPS Bioscience (San Diego, Calif.): PDE1A (Cat#60010), human PDE2A1 (Cat#60020), PDE3A (Cat#60030), PDE4A1A (Cat#60040), PDE5A1 (Cat#60050), PDE6C (Cat#60060), PDE7A (Cat#60070), PDE8A1 (Cat#60080), PDE9A2 (Cat#60090), PDE11A4 (Cat#60110).
Assays for PDE 1 through 11 were performed in parallel at room temperature in 384-well microtiter plates with an incubation volume of 20.2 μL. Solutions of test compounds were prepared in DMSO and serially diluted with DMSO to yield 30 μL of each of ten solutions differing by 3-fold in concentration, at 32 serial dilutions per plate. […] A Labcyte POD 810 (Labcyte, Sunnyvale, Calif.) was used to dispense 200 nL from each well of the titration plate to make eleven copies of the assay plate for each titration, one copy for each PDE enzyme. A solution of each enzyme (dilution from aliquots, sufficient to produce 20% substrate conversion) and a separate solution of FAM-labeled cAMP or FAM-labeled cGMP from Molecular Devices (Sunnyvale, Calif., product # R7506 or cGMP#R7508), at a final concentration of 50 nM were made in the assay buffer (10 mM Tris HCl, pH 7.2, 10 mM MgCl2, 0.05% NaN3 0.01% Tween-20, and 1 mM DTT). Note that the substrate for PDE2 is 50 nM FAM cAMP containing 1000 nM of cGMP. The enzyme and the substrate were then added to the assay plates in two consecutive additions of 10 μL and then shaken to mix. The reaction was allowed to proceed at room temperature for 60 minutes. A binding solution was then made from the kit components, comprised of 80% Solution A, 20% Solution B and binding reagent at a volume of 1/600 the total binding solution. The enzymatic reaction was stopped by addition of 60 μL of the binding solution to each well of the assay plate. The plates were sealed and shaken for 10 seconds. The plates were incubated at room temperature for one hour, then the parallel and perpendicular fluorescence was measured using a Tecan Genios Pro plate reader (Tecan, Switzerland). The apparent inhibition constants for the compounds against all 11 PDE's was determined from the parallel and perpendicular fluorescent readings as described for PDE10 FP assay using the following apparent KM values for each enzyme and substrate combination: PDE1A (FAM cGMP) 70 nM, human PDE2A1 (FAM cAMP) 10,000 nM, PDE3A (FAM cAMP) 50 nM, PDE4A1A (FAM cAMP) 1500 nM, PDE5A1 (FAM cGMP) 400 nM, PDE6C (FAM cGMP) 700 nM, PDE7A (FAM cAMP) 150 nM, PDE8A1 (FAM cAMP) 50 nM, PDE9A2 (FAM cGMP) 60 nM, PDE10A2 (FAM cAMP) 150 nM, PDE11A4 (FAM cAMP) 1000 nM. The intrinsic PDE2 inhibitory activity of a compound which may be used in accordance with the present invention may be determined by these assays.

Chain of human PDE2A1 (O00408 other isoform, or with tags, fused parts or gaps): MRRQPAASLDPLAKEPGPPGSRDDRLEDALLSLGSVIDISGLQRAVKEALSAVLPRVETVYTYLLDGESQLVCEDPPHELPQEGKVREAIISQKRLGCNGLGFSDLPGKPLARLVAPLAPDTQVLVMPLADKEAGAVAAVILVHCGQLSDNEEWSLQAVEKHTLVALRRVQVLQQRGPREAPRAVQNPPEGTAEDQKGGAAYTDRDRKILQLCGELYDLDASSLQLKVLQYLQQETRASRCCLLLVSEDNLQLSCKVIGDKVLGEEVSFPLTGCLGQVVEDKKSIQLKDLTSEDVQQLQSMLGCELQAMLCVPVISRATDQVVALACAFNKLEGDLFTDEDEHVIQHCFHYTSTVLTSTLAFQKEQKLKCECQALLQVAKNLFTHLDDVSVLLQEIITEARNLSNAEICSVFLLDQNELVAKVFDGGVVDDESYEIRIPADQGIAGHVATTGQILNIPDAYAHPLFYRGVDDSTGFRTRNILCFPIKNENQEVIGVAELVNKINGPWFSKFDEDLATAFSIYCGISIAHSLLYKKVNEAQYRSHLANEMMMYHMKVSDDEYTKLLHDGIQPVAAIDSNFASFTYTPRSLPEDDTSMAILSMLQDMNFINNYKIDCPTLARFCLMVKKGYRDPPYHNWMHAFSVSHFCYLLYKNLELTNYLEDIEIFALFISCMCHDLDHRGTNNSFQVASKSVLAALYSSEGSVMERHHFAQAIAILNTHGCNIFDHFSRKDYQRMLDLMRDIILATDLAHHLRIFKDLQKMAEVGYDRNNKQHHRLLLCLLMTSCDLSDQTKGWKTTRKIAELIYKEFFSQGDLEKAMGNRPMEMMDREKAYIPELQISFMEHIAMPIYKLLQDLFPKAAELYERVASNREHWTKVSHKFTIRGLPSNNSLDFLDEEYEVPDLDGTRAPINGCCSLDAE

Row | Compound | Ki [nM]
1 | CC(C)(C)[C@@H](NC(=O)c1cc(=O)[nH]c(-c2ccccc2)n1)c1ccc(OC(F)(F)F)c(F)c1 [Example 542, N-{(1R)-1-[3-fluoro-4-(trifluoromethoxy)phenyl]-2,2-dimethylpropyl}-6-oxo-2-phenyl-1,6-dihydropyrimidine-4-carboxamide] | 1.4
2 | CCc1nc(C(=O)N[C@](C)(CO)c2ccc(C(F)(F)F)cc2Cl)cc(=O)[nH]1 [Example 639, N-{(1S)-1-[2-chloro-4-(trifluoromethyl)phenyl]-2-hydroxy-1-methylethyl}-2-ethyl-6-oxo-1,6-dihydropyrimidine-4-carboxamide] | 2
3 | O=C(N[C@@H](c1ccc2c(c1)OC(F)(F)O2)C1CC1)c1cc(=O)[nH]c(-c2ncccn2)n1 [Example 591, N-[(R)-cyclopropyl(2,2-difluoro-1,3-benzodioxol-5-yl)methyl]-6-oxo-1,6-dihydro-2,2′-bipyrimidine-4-carboxamide] | 30
4 | CC(C)(C)[C@@H](NC(=O)c1cc(=O)[nH]c(-c2ccccc2)n1)c1ccc(SC(F)(F)F)cc1 [Example 541, N-[(1R)-2,2-dimethyl-1-{4-[(trifluoromethyl)sulfanyl]phenyl}propyl]-6-oxo-2-phenyl-1,6-dihydropyrimidine-4-carboxamide] | 1.3
5 | CCC(C)(NC(=O)c1cc(=O)[nH]c(C)n1)c1ccc(C(F)(F)F)cc1 (single isomer, unassigned) [Example 668, (S)- or (R)-2-methyl-N-{1-methyl-1-[4-(trifluoromethyl)phenyl]propyl}-6-oxo-1,6-dihydropyrimidine-4-carboxamide] | 67
6 | Cc1nc(C(=O)N[C@@H](c2ccc(C(F)F)c(F)c2)C(C)C)cc(=O)[nH]1 [Example 650, N-{(1R)-1-[4-(difluoromethyl)-3-fluorophenyl]-2-methylpropyl}-2-methyl-6-oxo-1,6-dihydropyrimidine-4-carboxamide] | 33
7 | Cc1nc(C(=O)N[C@@H](c2ccc3c(c2)OC(F)(F)O3)C2CC2)cc(=O)[nH]1 [Example 609, N-[(R)-cyclopropyl(2,2-difluoro-1,3-benzodioxol-5-yl)methyl]-2-methyl-6-oxo-1,6-dihydropyrimidine-4-carboxamide] | 94
8 | Cc1nc(C(=O)NC2(c3ccc(C(F)(F)F)cc3Cl)CC2)cc(=O)[nH]1 [Example 637, N-{1-[2-chloro-4-(trifluoromethyl)phenyl]cyclopropyl}-2-methyl-6-oxo-1,6-dihydropyrimidine-4-carboxamide] | 16
9 | Cc1nc(C(=O)NC2(c3ccc4c(c3)OC(F)(F)O4)CC2)cc(=O)[nH]1 [Example 534, N-[1-(2,2-difluoro-1,3-benzodioxol-5-yl)cyclopropyl]-2-methyl-6-oxo-1,6-dihydropyrimidine-4-carboxamide] | 87
10 | Cc1nc(C(=O)N[C@H](C)c2ccc(S(F)(F)(F)(F)F)cc2F)cc(=O)[nH]1 [Example 673, N-(1-(2-fluoro-4-(pentafluorothio)phenyl)ethyl)-2-methyl-6-oxo-1,6-dihydropyrimidine-4-carboxamide] | 32
11 | Cc1nc(C(=O)N[C@@H](c2ccc(C(F)F)cc2)C2CC2)cc(=O)[nH]1 [Example 649, N-{(1R)-cyclopropyl[4-(difluoromethyl)phenyl]methyl}-2-methyl-6-oxo-1,6-dihydropyrimidine-4-carboxamide] | 47
12 | Cc1nc(C(=O)NC(C)(C)c2ccc(C(F)(F)F)cc2C)cc(=O)[nH]1 [Example 595, 2-methyl-N-{1-methyl-1-[2-methyl-4-(trifluoromethyl)phenyl]ethyl}-6-oxo-1,6-dihydropyrimidine-4-carboxamide] | 37
13 | CC1(c2ccc(C(NC(=O)c3cc(=O)[nH]c(-c4ccccc4)n3)C(C)(C)C)cc2F)CC1 (single isomer, unassigned) [Example 715, (R)- or (S)-N-(1-(3-fluoro-4-(1-methylcyclopropyl)phenyl)-2,2-dimethylpropyl)-6-oxo-2-phenyl-1,6-dihydropyrimidine-4-carboxamide] | 3.8
14 | CC(C)(C)[C@@H](NC(=O)c1cc(=O)[nH]c(-c2ncccn2)n1)c1ccc(C(F)(F)F)c(F)c1 [Example 556, N-{(1R)-1-[3-fluoro-4-(trifluoromethyl)phenyl]-2,2-dimethylpropyl}-6-oxo-1,6-dihydro-2,2′-bipyrimidine-4-carboxamide] | 7.7
15 | CCc1nc(C(=O)N[C@@H](c2ccc(C(F)(F)F)c(F)c2)C2CC2)cc(=O)[nH]1 [Example 603, N-{(R)-cyclopropyl[3-fluoro-4-(trifluoromethyl)phenyl]methyl}-2-ethyl-6-oxo-1,6-dihydropyrimidine-4-carboxamide] | 7.2
16 | Cc1nc(C(=O)N[C@]2(c3ccc(C(F)(F)F)cc3)C[C@@H]2C)cc(=O)[nH]1 (single isomer, unassigned) [Example 671, 2-methyl-N-{2-methyl-1-[4-(trifluoromethyl)phenyl)cyclopropyl}-6-oxo-1,6-dihydropyrimidine-4-carboxamide] | 14
17 | Cc1nc(C(=O)N[C@@H](c2ccc(OC(F)(F)F)cc2)C(C)(C)O)cc(=O)[nH]1 [Example 724, N-{(1S)-2-hydroxy-2-methyl-1-[4-(trifluoromethoxy)phenyl]propyl}-2-methyl-6-oxo-1,6-dihydropyrimidine-4-carboxamide] | 3.1
18 | CCc1nc(C(=O)N[C@H](C)c2ccc(S(F)(F)(F)(F)F)cc2)cc(=O)[nH]1 [Example 599, 2-ethyl-6-oxo-N-{(1R)-1-[4-(pentafluoro-λ^6-sulfanyl)phenyl]ethyl}-1,6-dihydropyrimidine-4-carboxamide] | 10
19 | CCc1nc(C(=O)N[C@H](C)c2ccc(OC(F)(F)F)c(F)c2)cc(=O)[nH]1 [Example 598, 2-ethyl-N-{(1R)-1-[3-fluoro-4-(trifluoromethoxy)phenyl]ethyl}-6-oxo-1,6-dihydropyrimidine-4-carboxamide] | 3.7
20 | Cc1nc(C(=O)NC2(c3ccc(C(F)F)cc3)CC2)cc(=O)[nH]1 [Example 660, N-{1-[4-(difluoromethyl)phenyl]cyclopropyl}-2-methyl-6-oxo-1,6-dihydropyrimidine-4-carboxamide] | 54
21 | CC(NC(=O)c1cc(=O)[nH]c(C2CC2)n1)c1ccc(C(C)(C)C(F)(F)F)cc1 (single isomer, unassigned) [Example 697] | 115
22 | Cc1nc(C(=O)N[C@@H](c2ccc(OC(F)F)c(F)c2)C(C)(C)C)cc(=O)[nH]1 [Example 630, N-{(1R)-1-[4-(difluoromethoxy)-3-fluorophenyl]-2,2-dimethylpropyl}-2-methyl-6-oxo-1,6-dihydropyrimidine-4-carboxamide] | 5.1
23 | CC(C)(NC(=O)c1cc(=O)[nH]c(-c2ncccn2)n1)c1ccc(SC(F)(F)F)cc1 [Example 577, N-(1-methyl-1-{4-[(trifluoromethyl)sulfanyl]phenyl}ethyl)-6-oxo-1,6-dihydro-2,2′-bipyrimidine-4-carboxamide] | 287
24 | CC(C)(C)[C@@H](NC(=O)c1cc(=O)[nH]c(-c2ncccn2)n1)c1ccc(SC(F)(F)F)cc1 [Example 555, N-[(1R)-2,2-dimethyl-1-{4-[(trifluoromethyl)sulfanyl]phenyl}propyl]-6-oxo-1,6-dihydro-2,2′-bipyrimidine-4-carboxamide] | 4.5
